Reference: ChEMBL document CHEMBL4613209, “Quinolone hybrids and their anti-cancer activities: An overview” (Eur J Med Chem, 2019)
pIC50: −log10 of the molar value. Converted amounts (≈) assume the structure as drawn.

Legend:
HCT-116 [1] = assay: Anticancer activity against human HCT116 cells after 48 to 72 hrs by MTT assay; type: functional, cell-based
Jurkat = assay: Anticancer activity against human Jurkat cells after 48 to 72 hrs by MTT assay; type: functional, cell-based
SMMC-7721 [2] = assay: Anticancer activity against human SMMC7721 cells after 48 to 72 hrs by MTT assay; type: functional, cell-based
Hep 3B2 = assay: Anticancer activity against human Hep3B cells after 48 to 72 hrs by MTT assay; type: functional, cell-based
K562 [3] = assay: Anticancer activity against human K562 cells after 48 to 72 hrs by MTT assay; type: functional, cell-based
K562 [4] = assay: Anticancer activity against human K562 cells; type: functional, cell-based
HCT-116 [5] = assay: Cytotoxicity against human HCT116 cells assessed as reduction in cell viability by SRB assay; type: functional, cell-based
MCF7 [6] = assay: Cytotoxicity against human MCF7 cells assessed as reduction in cell viability by SRB assay; type: functional, cell-based
A549 [7] = assay: Antiproliferative activity against human A549 cells after 48 hrs by MTT assay; type: functional, cell-based; conditions: A549, 48 h
PANC-1 [8] = assay: Antiproliferative activity against human PANC1 cells after 48 hrs by MTT assay; type: functional, cell-based; conditions: PANC-1, 48 h
HCT-116 [9] = assay: Antiproliferative activity against human HCT116 cells after 48 hrs by MTT assay; type: functional, cell-based; conditions: HCT-116, 48 h
HeLa [10] = assay: Antiproliferative activity against human HeLa cells after 48 hrs by MTT assay; type: functional, cell-based
HT-29 = assay: Anticancer activity against human HT-29 cells by MTT assay; type: functional, cell-based
HepG2 [11] = assay: Anticancer activity against human HepG2 cells by MTT assay; type: functional, cell-based
HL-60 [12] = assay: Anticancer activity against human HL60 cells by MTT assay; type: functional, cell-based
HeLa [13] = assay: Anticancer activity against human HeLa cells by MTT assay; type: functional, cell-based
A549 [14] = assay: Anticancer activity against human A549 cells by MTT assay; type: functional, cell-based
DU-145 [15] = assay: Cytotoxicity against human DU145 cells assessed as reduction in cell viability after 48 hrs by SRB assay; type: functional, cell-based; conditions: DU-145, 48 h
PC-3 = assay: Cytotoxicity against human PC3 cells assessed as reduction in cell viability after 48 hrs by SRB assay; type: functional, cell-based; conditions: PC-3, 48 h
HT-1080 = assay: Cytotoxicity against human HT1080 cells assessed as reduction in cell viability; type: functional, cell-based
HUVEC = assay: Cytotoxicity against human HUVEC cells assessed as reduction in cell viability by MTT assay; type: cell-based
SMMC-7721 [16] = assay: Cytotoxicity against human SMMC7721 cells assessed as reduction in cell viability by MTT assay; type: functional, cell-based
SW1990 = assay: Cytotoxicity against human SW1990 cells assessed as reduction in cell viability by MTT assay; type: functional, cell-based
[17] = Toxicity in mouse xenografted with human MB-9812 cells
MCF7 [18] = assay: Anticancer activity against human MCF7 cells after 48 hrs by SRB assay; type: functional, cell-based; conditions: MCF7, 48 h
HeLa [19] = assay: Anticancer activity against human HeLa cells after 48 hrs by SRB assay; type: functional, cell-based
MCF7 [20] = assay: Cytotoxicity against human MCF7 cells assessed as reduction in cell viability after 48 hrs by MTT assay; type: functional, cell-based; conditions: MCF7, 48 h
HCT-116 [21] = assay: Anticancer activity against human HCT116 cells after 48 hrs by SRB assay; type: functional, cell-based; conditions: HCT-116, 48 h
DU-145 [22] = assay: Anticancer activity against human DU145 cells after 48 hrs by SRB assay; type: functional, cell-based; conditions: DU-145, 48 h
MCF7-DOX = assay: Anticancer activity against human MCF7/Dox cells after 48 hrs by SRB assay; type: functional, cell-based
[23] = Toxicity in mouse xenografted with human CX-1 cells; conditions: in vivo
HepG2 [24] = assay: Anticancer activity against human HepG2 cells after 48 hrs by SRB assay; type: functional, cell-based; conditions: HepG2, 48 h
T47D = assay: Cytotoxicity against human T47D cells assessed as reduction in cell viability after 48 hrs by MTT assay; type: functional, cell-based
HL-60 [25] = assay: Anticancer activity against human HL60 cells after 48 hrs by SRB assay; type: functional, cell-based; conditions: HL-60, 48 h
PANC-1 [26] = assay: Anticancer activity against human PANC1 cells after 48 hrs by SRB assay; type: functional, cell-based; conditions: PANC-1, 48 h
MDA-MB-231 = assay: Cytotoxicity against human MDA-MB-231 cells assessed as reduction in cell viability after 48 hrs by MTT assay; type: functional, cell-based; conditions: MDA-MB-231, 48 h
SK-OV-3 = assay: Anticancer activity against human SKOV3 cells after 48 hrs by SRB assay; type: functional, cell-based; conditions: SK-OV-3, 48 h
A549 [27] = assay: Anticancer activity against human A549 cells after 48 hrs by SRB assay; type: functional, cell-based; conditions: A549, 48 h
MCF7 [28] = assay: Cytotoxicity against human MCF7 cells assessed as reduction in cell viability after 72 hrs by MTT assay; type: functional, cell-based; conditions: MCF7, 72 h

Structure (SMILES): COc1cc(/C=N/n2c(SCc3ccccc3)nnc2-c2cn(C3CC3)c3cc(N4CCNCC4)c(F)cc3c2=O)cc(OC)c1OC
- pIC50 (HCT-116 [1]): > 4.30
- pIC50 (Jurkat): > 4.30
- pIC50 (SMMC-7721 [2]): > 4.30

Structure (SMILES): O=c1c(/C(CCN2CCOCC2)=N/Nc2ccccc2)c(O)c2ccccc2n1-c1ccccc1
- IC50 (Hep 3B2): < 20 mg/L
- IC50 (K562 [3]): < 20 mg/L

Structure (SMILES): NC(=O)c1cn([C@@H]2O[C@H](CO)[C@@H](O)[C@H]2O)c2ccc(Oc3ccccc3)cc2c1=O
- pIC50 (K562 [4]): 4.11

Structure (SMILES): N#Cc1c(N)c2cc(-c3nc4ccccc4o3)ccc2[nH]c1=O
- pIC50 (HCT-116 [5]): 7.45
- pIC50 (MCF7 [6]): 7.57

Structure (SMILES): O=C(NO)c1cn(C2CC2)c2cc(-n3cc(CN4CCCCC4)nn3)c(F)cc2c1=O
- pIC50 (A549 [7]): < 5.00
- pIC50 (PANC-1 [8]): < 5.00
- pIC50 (HCT-116 [9]): < 5.00
- pIC50 (HeLa [10]): < 5.00

Structure (SMILES): N#Cc1c(N)c2cc(-c3nc4ccccc4s3)ccc2[nH]c1=O
- pIC50 (HCT-116 [5]): 7.21
- pIC50 (MCF7 [6]): 7.13

Structure (SMILES): CCOC(=O)c1cn(Cc2cn(-c3ccc(F)cc3)nn2)c2ccc(Cl)cc2c1=O
- pIC50 (HT-29): 4.18 to 4.87
- pIC50 (HepG2 [11]): 4.18 to 4.87
- pIC50 (HL-60 [12]): 4.18 to 4.87
- pIC50 (HeLa [13]): 4.18 to 4.87
- pIC50 (A549 [14]): 4.18 to 4.87

Structure (SMILES): O=C(NO)c1cn(C2CC2)c2cc(-n3cc(CN4CCOCC4)nn3)c(F)cc2c1=O
- pIC50 (A549 [7]): < 5.00
- pIC50 (PANC-1 [8]): < 5.00
- pIC50 (HCT-116 [9]): < 5.00
- pIC50 (HeLa [10]): < 5.00

Structure (SMILES): Cn1c(=O)cc(Cc2nnc3n2N=C(c2cc4ccccc4oc2=O)CS3)c2ccccc21
- IC50 (DU-145 [15]): 20.4 mg/L (≈ 44.8 µM)
- IC50 (PC-3): 43.3 mg/L (≈ 95.1 µM)

Structure (SMILES): C/C(=N\Nc1ccccc1)c1c(O)c2ccccc2n(-c2ccccc2)c1=O
- IC50 (Hep 3B2): < 10 mg/L
- IC50 (K562 [3]): < 10 mg/L

Structure (SMILES): Cc1cc2c(n1-c1ccccc1)CCc1cc(S(=O)(=O)c3ccccc3)c(O)nc1-2
- pIC50 (HT-1080): 5.44 to 6.40

Structure (SMILES): COc1ccc2cc3[n+](cc2c1OC)CCc1cc2c(cc1-3)OCO2 [BERBERINE]
- pIC50 (HUVEC): 4.18 to 4.74
- pIC50 (SMMC-7721 [16]): 4.18 to 4.74
- pIC50 (SW1990): 4.18 to 4.74

Structure (SMILES): CC[C@H](CC[C@@H](C)[C@H]1CC[C@H]2[C@@H]3CC=C4C[C@@H](O)CC[C@]4(C)[C@H]3CC[C@]12C)C(C)C [BETA-SITOSTEROL]
- pIC50 (HT-1080): 4.80 to 5.60

Structure (SMILES): COc1cc([C@@H]2c3cc4c(cc3[C@@H](O[C@@H]3O[C@@H]5CO[C@@H](C)O[C@H]5[C@H](O)[C@H]3O)[C@H]3COC(=O)[C@H]23)OCO4)cc(OC)c1O [ETOPOSIDE]
- LD50 [17]: 64 mg/kg
- pIC50 (MCF7 [18]): 4.30 to 5.54
- pIC50 (HeLa [19]): 4.30 to 5.54
- pIC50 (MCF7 [20]): 4.80 to 4.93
- pIC50 (HCT-116 [21]): 4.30 to 5.54
- pIC50 (DU-145 [22]): 4.30 to 5.54
- pIC50 (MCF7-DOX): 4.30 to 5.54
- LD50 [23]: 64 mg/kg
- pIC50 (HepG2 [24]): 4.30 to 5.54
- pIC50 (T47D): 4.80 to 4.93
- pIC50 (HL-60 [25]): 4.30 to 5.54
- pIC50 (PANC-1 [26]): 4.30 to 5.54
- pIC50 (MDA-MB-231): 4.80 to 4.93
- pIC50 (SK-OV-3): 4.30 to 5.54
- pIC50 (A549 [27]): 4.30 to 5.54
- pIC50 (MCF7 [28]): 4.30 to 5.54

Structure (SMILES): CN(Cc1cnc2nc(N)nc(N)c2n1)c1ccc(C(=O)N[C@@H](CCC(=O)O)C(=O)O)cc1 [METHOTREXATE]
- LD50 [17]: 5 mg/kg
- LD50 [23]: 5 mg/kg
